These results are taken from ChEMBL document CHEMBL5214916, “Enzyme inhibition as a potential therapeutic strategy to treat COVID-19 infection” (Bioorg Med Chem, 2021).

In data set [1] the target is T1, Angiotensin-converting enzyme (Homo sapiens, UniProt P12821). Nature of the data set: Inhibition of recombinant human ACE assessed as maximum inhibition using Mca-RPGFSAFK (Dnp)-OH as substrate by fluorescence plate reader assay relative to control.
The target of data set [2] is T1, Angiotensin-converting enzyme. Nature of the data set: Inhibition of recombinant human ACE using Mca-RPGFSAFK (Dnp)- OH as substrate by fluorescence plate reader assay.
The target of data set [3] is T2, Angiotensin-converting enzyme 2 (Homo sapiens, UniProt Q9BYF1). Nature of the data set: Inhibition of ACE2 in human MNCs assessed as maximum inhibition using 7- Mca-YVADAPK (Dnp) as substrate by fluorescence plate reader assay relative to control. As to conditions: Mononuclear cell line. In kind it is cell-based.
Target sequence in this assay (Q9BYF1 18-805 limits assumed): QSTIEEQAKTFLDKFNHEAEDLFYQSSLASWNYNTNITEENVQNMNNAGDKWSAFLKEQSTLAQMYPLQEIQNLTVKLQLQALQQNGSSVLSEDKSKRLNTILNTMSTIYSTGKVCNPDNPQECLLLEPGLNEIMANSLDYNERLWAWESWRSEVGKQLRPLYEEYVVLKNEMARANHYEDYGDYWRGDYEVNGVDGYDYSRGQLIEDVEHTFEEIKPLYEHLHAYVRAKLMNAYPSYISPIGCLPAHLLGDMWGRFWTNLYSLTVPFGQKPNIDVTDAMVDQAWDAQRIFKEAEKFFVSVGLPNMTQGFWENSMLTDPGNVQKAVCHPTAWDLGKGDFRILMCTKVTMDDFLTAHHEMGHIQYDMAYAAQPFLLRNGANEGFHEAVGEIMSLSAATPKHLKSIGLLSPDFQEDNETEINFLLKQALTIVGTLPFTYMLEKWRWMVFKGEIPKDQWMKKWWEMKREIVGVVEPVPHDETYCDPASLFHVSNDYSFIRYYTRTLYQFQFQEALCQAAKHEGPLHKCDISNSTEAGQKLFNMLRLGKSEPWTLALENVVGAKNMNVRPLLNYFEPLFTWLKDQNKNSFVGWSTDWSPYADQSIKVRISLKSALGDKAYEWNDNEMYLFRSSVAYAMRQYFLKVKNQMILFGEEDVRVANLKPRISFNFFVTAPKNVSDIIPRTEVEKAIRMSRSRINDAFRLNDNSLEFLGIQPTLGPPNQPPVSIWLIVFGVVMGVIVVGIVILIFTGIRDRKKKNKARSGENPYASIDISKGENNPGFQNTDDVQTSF
Data set [4] deals with T1, Angiotensin-converting enzyme. Kind of data set: Inhibition of ACE in human MNCs assessed as maximum inhibition using substrate Mca-RPGFSAFK (Dnp)-OH as substrate by fluorescence plate reader assay relative to control. As to conditions: Mononuclear cell line. In kind it is cell-based.
Data set [5] addresses T2, Angiotensin-converting enzyme 2. Nature of the data set: Inhibition of recombinant human ACE2 assessed as maximum inhibition using 7- Mca-YVADAPK (Dnp) as substrate by fluorescence plate reader assay relative to control.
Target sequence in this assay (Q9BYF1 18-805 limits assumed): as above
For data set [6] the target is unchanged. Nature of the data set: Inhibition of recombinant human ACE2 using 7-Mca-YVADAPK (Dnp) as substrate by fluorescence plate reader assay.
Target sequence in this assay (Q9BYF1 whole entry): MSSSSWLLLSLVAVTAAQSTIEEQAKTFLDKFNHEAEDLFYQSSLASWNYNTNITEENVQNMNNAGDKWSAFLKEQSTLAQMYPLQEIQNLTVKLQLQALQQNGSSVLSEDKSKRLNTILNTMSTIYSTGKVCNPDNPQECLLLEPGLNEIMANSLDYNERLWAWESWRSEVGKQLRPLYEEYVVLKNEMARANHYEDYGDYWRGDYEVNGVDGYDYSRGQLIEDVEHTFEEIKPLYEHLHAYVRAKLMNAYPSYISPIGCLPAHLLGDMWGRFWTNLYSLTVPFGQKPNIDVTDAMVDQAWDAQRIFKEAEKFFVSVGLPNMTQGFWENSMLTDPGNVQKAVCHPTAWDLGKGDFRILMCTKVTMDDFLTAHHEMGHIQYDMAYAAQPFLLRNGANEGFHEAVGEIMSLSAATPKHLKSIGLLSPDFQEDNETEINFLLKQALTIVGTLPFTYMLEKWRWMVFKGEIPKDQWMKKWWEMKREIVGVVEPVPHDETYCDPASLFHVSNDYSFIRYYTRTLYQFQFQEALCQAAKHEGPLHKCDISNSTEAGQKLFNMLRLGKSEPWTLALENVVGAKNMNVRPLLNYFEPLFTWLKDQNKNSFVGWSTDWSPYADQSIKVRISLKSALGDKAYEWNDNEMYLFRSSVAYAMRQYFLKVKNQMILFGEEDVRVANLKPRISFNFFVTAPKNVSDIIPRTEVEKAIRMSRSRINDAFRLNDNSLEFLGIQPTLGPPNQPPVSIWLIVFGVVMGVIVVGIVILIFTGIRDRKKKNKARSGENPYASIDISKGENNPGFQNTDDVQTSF
The target in data set [7] is Transmembrane protease serine 2 (Homo sapiens, UniProt O15393). Kind of data set: Inhibition of TMPRSS2 (unknown origin) expressed in Escherichia coli BL21 (DE3) using H-D cyclohexylalanine-Pro-Arg-AM as substrate by Dixon method.
Transmembrane protease serine 2, sequence (O15393 1-255 limits assumed): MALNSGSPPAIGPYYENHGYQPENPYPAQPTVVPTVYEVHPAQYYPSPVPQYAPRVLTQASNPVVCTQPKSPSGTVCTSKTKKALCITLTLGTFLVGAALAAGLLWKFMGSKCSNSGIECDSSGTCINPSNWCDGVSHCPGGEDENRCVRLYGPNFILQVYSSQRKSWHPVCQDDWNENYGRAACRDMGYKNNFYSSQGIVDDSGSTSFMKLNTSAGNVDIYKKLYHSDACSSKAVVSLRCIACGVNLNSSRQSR
Transmembrane protease serine 2, sequence (O15393 256-492 limits assumed): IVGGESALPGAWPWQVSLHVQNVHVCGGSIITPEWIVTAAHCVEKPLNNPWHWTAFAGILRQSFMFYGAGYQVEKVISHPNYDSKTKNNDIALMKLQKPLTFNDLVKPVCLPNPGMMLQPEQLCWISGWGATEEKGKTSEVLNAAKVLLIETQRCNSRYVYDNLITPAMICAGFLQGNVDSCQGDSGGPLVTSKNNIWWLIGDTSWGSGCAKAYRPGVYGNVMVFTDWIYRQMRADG
The subject of data set [8] is Influenza A virus. Nature of the data set: Antiviral activity against human pandemic influenza virus A/Hamburg/5/09 (H1N1) infected in human Calu-3 cells assessed as fold decrease in viral titre at 50 uM incubated for 24 hrs by plaque assay. The data set is classed as functional.
Data set [9] concerns Influenza A virus. Kind of data set: Antiviral activity against human pandemic influenza virus A/Aichi/2/68 (H3N2) infected in human Calu-3 cells assessed as fold decrease in viral titre at 10 uM incubated for 24 hrs by plaque assay. In kind it is functional.
Data set [10] concerns Influenza A virus. Nature of the data set: Antiviral activity against human pandemic influenza virus A/Hamburg/5/09 (H1N1) infected in human Calu-3 cells assessed as fold decrease in viral titre at 10 uM incubated for 24 hrs by plaque assay. The data set is classed as functional.
The test system of data set [11] is Influenza A virus. Nature of the data set: Antiviral activity against human pandemic influenza virus A/Aichi/2/68 (H3N2) infected in human Calu-3 cells assessed as fold decrease in viral titre at 50 uM incubated for 24 hrs by plaque assay. In kind it is functional.
The test system of data set [12] is Calu-3. Kind of data set: Cytotoxicity against human Calu-3 cells assessed as decrease in viability at 50 uM incubated for 48 hrs by MTT assay. As to conditions: calu-3, 48 h. In kind it is toxicity, cell-based. In general terms: Tetrazolium dyes change colour on reduction, which living cells bring about.

T1 sequence (P12821 whole entry): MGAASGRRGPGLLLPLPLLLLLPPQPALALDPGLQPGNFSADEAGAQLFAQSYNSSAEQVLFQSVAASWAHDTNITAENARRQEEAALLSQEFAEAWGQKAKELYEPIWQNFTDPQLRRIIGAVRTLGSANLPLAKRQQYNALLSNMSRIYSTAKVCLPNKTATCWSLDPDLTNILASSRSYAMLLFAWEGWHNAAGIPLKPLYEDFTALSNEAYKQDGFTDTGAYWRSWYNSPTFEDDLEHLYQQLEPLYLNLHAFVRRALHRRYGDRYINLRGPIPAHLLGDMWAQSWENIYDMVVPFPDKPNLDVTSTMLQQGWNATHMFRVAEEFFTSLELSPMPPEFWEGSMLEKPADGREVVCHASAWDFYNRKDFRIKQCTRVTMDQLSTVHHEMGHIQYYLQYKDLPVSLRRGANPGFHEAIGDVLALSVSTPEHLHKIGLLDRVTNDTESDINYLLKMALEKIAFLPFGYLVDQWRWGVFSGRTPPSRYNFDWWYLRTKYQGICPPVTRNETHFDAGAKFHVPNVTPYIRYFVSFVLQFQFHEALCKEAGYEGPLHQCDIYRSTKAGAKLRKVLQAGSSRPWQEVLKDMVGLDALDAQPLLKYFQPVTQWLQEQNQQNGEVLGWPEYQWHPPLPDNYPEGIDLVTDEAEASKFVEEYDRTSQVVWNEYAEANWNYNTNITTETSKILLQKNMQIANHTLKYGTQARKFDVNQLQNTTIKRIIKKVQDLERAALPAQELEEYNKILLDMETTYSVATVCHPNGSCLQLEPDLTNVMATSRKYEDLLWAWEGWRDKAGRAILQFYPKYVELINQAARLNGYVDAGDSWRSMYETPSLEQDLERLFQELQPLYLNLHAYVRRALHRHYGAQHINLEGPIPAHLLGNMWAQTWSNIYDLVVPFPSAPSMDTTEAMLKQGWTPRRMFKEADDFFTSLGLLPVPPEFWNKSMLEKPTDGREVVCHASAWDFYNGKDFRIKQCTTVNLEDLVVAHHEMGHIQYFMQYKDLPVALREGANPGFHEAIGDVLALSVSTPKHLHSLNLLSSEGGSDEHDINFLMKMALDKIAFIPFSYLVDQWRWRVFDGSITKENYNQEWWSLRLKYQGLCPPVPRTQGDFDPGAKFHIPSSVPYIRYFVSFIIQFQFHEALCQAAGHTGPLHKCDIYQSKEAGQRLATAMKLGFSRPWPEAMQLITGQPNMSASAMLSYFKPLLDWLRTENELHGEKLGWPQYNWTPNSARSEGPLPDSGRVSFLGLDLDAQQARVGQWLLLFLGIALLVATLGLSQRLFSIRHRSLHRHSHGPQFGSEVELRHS

Usually IC50 stands for the concentration at which inhibition is half-maximal. As for `CC(C)C[C@@H](N[C@@H](Cc1cncn1Cc1cc(Cl)cc(Cl)c1)C(=O)O)C(=O)O`, the Imax turned out to be 49% in data set [1], 35% in data set [3], 20% in data set [4] and 93% in [5]. The 50% inhibitory concentration (IC50) in data set [2] is 39800 nM; in data set [6] it was 1.26 nM.
The term Ki denotes a measure of affinity in units of concentration, obtained from inhibition or displacement. Higher therefore signals a looser hold on the target. `COc1ccc(-c2cccc(S(=O)(=O)N[C@@H](Cc3cccc(C(=N)N)c3)C(=O)N3CCC(CCN)CC3)c2)c(OC)c1`: the Ki in data set [7] was found to be 1 nM.
For the molecule `N=C(N)c1cccc(C[C@H](NS(=O)(=O)c2cccc(-c3ccc(Cl)cc3Cl)c2)C(=O)N2CCC(CCN)CC2)c1`, the “fold change (FC)” value was found to be 100 in data set [8], 100 in data set [9], 10 in data set [10] and 100 in data set [11]. Besides, in data set [7], affinity was put at a Ki of 0.9 nM.
Turning to `CNC(=O)NCCC1CCN(C(=O)[C@H](Cc2cccc(C(=N)N)c2)NS(=O)(=O)c2cccc(-c3ccc(OC)cc3OC)c2)CC1`, the Ki in data set [7] was 3 nM.
The same measure, in the same setting: the same measure for `CNC(=O)NCCC1CCN(C(=O)[C@H](Cc2cccc(C(=N)N)c2)NS(=O)(=O)c2cccc(-c3ccc(Cl)cc3Cl)c2)CC1`: 3 nM.
For `CC(C)CC(N[C@@H](Cc1cncn1Cc1cc(Cl)cc(Cl)c1)C(=O)O)C(=O)O` (mixture of isomers), the Imax in data set [1] turned out to be 48%; in [3] it was 34%; in data set [4], 22%; in data set [5] it was 94%. In addition, the IC50 in data set [2] was 39800 nM; in data set [6], 3.16 nM.
Consider `COc1ccc(-c2cccc(S(=O)(=O)N[C@@H](Cc3cccc(C(=N)N)c3)C(=O)N3CCC(NC(=O)NC4CCCCC4)CC3)c2)c(OC)c1`, for which the Activity in [12] was determined as 20%. The same molecule showed a Ki in [7] of 3 nM.
Regarding `CNC(=O)CCCC1CCN(C(=O)[C@H](Cc2cccc(C(=N)N)c2)NS(=O)(=O)c2cccc(-c3ccc(Cl)cc3Cl)c2)CC1`, the Activity in data set [12] stood at 20%.
What is called pIC50 is the IC50 on a negative log10 scale, so that one unit is a factor of ten. Regarding `CC(C)C[C@H](N[C@@H](Cc1cncn1Cc1cc(Cl)cc(Cl)c1)C(=O)O)C(=O)O` [ORE-1001], the Imax in data set [1] came to 46%; in data set [3], 63%; in [4], 34%; in data set [5] it was 80%. For the same molecule, the results for the pIC50 in [2] and in data set [6] were 5 and 8.01, respectively.
In data set [7], `N=C(N)c1cccc(C[C@H](NS(=O)(=O)c2cccc(-c3ccc(Cl)cc3Cl)c2)C(=O)N2CCC(NC(=O)NC3CCCCC3)CC2)c1` showed a Ki of 3 nM.
